Test results taken from patent US7579488B2 (Eli Lilly and Company, priority 2003, dated 2009).
“And” between values parts separate entries of the source, which are not always exact repeats. Identical values can stand only once. Like-named read-outs stand apart in the source and are kept apart here.

Experiments:
rat osteocalcin promoter = experiment: OCN (osteocalcin) promoter assay; type: cell-based; settings: RG-15 (ROS 17/2.8) cells
Method: 3. The OCN (Osteocalcin) Promoter Assay
The OCN Promoter Assay is an indicator and marker for osteoporosis. […] Preferred assay results are less than 50 nM.
(3) Materials and Method for The OCN Promoter Assay:
The activation of osteocalcin by VDR ligands was evaluated in a rat osteoblast-like cell line RG-15 (ROS 17/2.8) stably expressing rat osteocalcin promoter fused with luciferase reporter gene. […] Confluent RG-15 cells maintained in DMEM/F-12 medium (3:1) containing 5% FBS, 300 μg/ml G418 and at 37° C. under 5% CO2/95% air atmosphere were trypsinized (0.25% trypsin) and plated into white opaque 96-well cell culture plates (25000 cells/well). After 24 hr, cells (in DMEM/F-12 medium+2% FBS) were treated with various concentrations of compounds, dissolved in DMSO. The final DMSO concentration remained at 0.01% (v/v). After 48 hr treatment, the medium was removed, cells were lysed with 50 μl of lysis buffer (From Luciferase reporter assay system, Roche Diagnostics, Indianapolis, Ind.) and assayed for luciferase activity using the Luciferase Reporter Gene Assay kit from Boehringer Mannheim as per manufacturer's specifications.

KERtr cells = experiment: Keratinocyte proliferation assay; type: cell-based; settings: Homo sapiens, read-out: Kera. Prolif. IC50
Method: 5. The Keratinocyte Proliferation Assay
This Assay is indicative for the treatment of psoriasis.
(5) The Keratinocyte Proliferation Assay:
KERtr cells (Human skin keratinocyte transformed with a retrovirus vector, obtained from ATCC) were plated in 96-well flat-bottomed plates (3000 cells/well) in 100 μl keratinocyte serum free medium supplemented with bovine pituitary extract in the absence of EGF (Life Technologies, Rockville, Md.) and incubated at 37° C. for two days. The cells were treated with various concentrations of VDR ligands (ten-fold serial dilution from 10,000 nM to 0.1 nM in triplicate), dissolved in 100 μl keratinocyte serum free medium supplemented with bovine pituitary extract in the absence of EGF and incubated at 37° C. for 72 hr. […] Potency values (IC50) values were determined as the concentration (nM) of compound that elicited a half-maximal response.

IL-10 = IL-10 induction assay; type: cell-based; settings: Homo sapiens, PBMC
Excerpt: 6. The IL-10 Induction Assay
This is an in vitro efficacy assay for psoriasis, abscess and adhesion. Psoriasis involves both keratinocytes and immune cells. IL-10 is a unique cytokine because it is anti-inflammatory and immunosuppressive. This assay tells us whether a VDRM is able to function as an agonist in PBMCs ([…]) or not.
(6) Materials and Method for Human IL-10 Induction Assay:
Isolation of Peripheral Blood Mononuclear Cells (PBMCs):
B. Prepare sterile tubes with ficol.
C. Add diluted blood to tubes.
E. Discard the top layer and collect the cells from middle layer.
F. Divide all cells into four tubes and add media.
H. Aspirate off media and resuspend.
J. Centrifuge. at 1200 rpm for 10 minutes.
M. Dissolve PHA in water.
N. Plate TPA/PHA treated PBMCs in well plates.
Sample Collection and Assay:
S. Remove all the cells by centrifugation and assay the supernatant for IL-10 by immunoassay.
1) T. Perform […] using anti-human IL-10 antibody coated beads, as described by the manufacturer (Linco Research Inc., St. Charles, Mo.).

female DBF mice = experiment: Mouse hypercalcemia assay; settings: oral gavage for 6 days
Excerpt: The Mouse Hypercalcemia Assay
The Mouse Hypercalcemia Assay is a six day hypercalcemia test for toxicity and selectivity.
(4) Materials and Method for the Mouse Hypercalcemia Assay:
Weanling, virus-antibody-free, five to six weeks old female DBF mice (Harlan, Indianapolis, Ind.) are used for all the studies. Animals are allowed to acclimate to local vivarium conditions for 2 days. […] The animals then are divided into groups with 4-5 mice per group. Different doses of test compounds prepared in 10% Ethanol and 90% sesame oil are administered to mice orally via gavage for 6 days. 1α-25(OH)2D3 0.5 μg/kg/d was also given to one group of mice as the positive control. […] Raw data of group differences is assessed by analysis of variance (ANOVA) using Fisher's protected least significant difference (PLSD) where the significance level was P<0.05.

VDR = molecular target: T1, VDR (Homo sapiens, UniProt P11473); experiment: VDR CTF (Caco-2 cell co-transfection) assay; type: cell-based; settings: Caco-2 cells, pGal4-VDR-LBD co-transfection, luciferase; several values separated by /
T1 construct: the receptor expression vector pGal4-VDR-LBD (10 ng); expressed in transfected cells; host or cells: Caco-2 cells
T1 sequence (P11473 127-423 limits assumed): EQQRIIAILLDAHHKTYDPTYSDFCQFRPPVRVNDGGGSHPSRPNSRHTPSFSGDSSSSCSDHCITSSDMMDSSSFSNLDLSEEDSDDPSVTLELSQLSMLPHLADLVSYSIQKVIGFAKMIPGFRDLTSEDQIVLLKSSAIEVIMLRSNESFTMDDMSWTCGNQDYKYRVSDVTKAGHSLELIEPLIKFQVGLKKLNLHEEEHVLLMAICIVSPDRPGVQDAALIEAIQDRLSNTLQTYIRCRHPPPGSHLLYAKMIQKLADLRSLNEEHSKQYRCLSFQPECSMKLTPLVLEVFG
Method: 2. The Caco-2 Cell Co-Transfection Assay:
The Caco-2 cell assay is an indicator for the undesirable condition of hypercalcemia. This co-transfection assay is a surrogate assay for in vivo calcemic activity of VDR ligands. […] Preferred assay results are greater than 1000 nM.
(2) Materials and Method for the Caco-2 Cell Assay:
Caco-2 cells, grown in phenol red free, DMEM (Invitrogen, Carlsbad, Calif.) containing 10% charcoal-stripped FCS (Hyclone, Logan, Utah), were transfected with Fugene 6 reagent (Roche Diagnostics, Indianapolis, Ind.). Cells (5000/well) were plated 18 h before transfection in a 96 well plate. The Cells were transfected with Gal4-responsive reporter pFRLuc (150 ng, Stratagene, La Jolla Calif.) and the receptor expression vector pGal4-VDR-LBD (10 ng), along with Fugene 6 reagent (0.2 μl/well). The DNA-Fugene complex was formed by incubating the mixture for 30 min at room temperature. The cells were transfected in triplicate for 5 h, and treated with various concentrations of VDR ligands (form 0.01 nM to 10,000 nM concentration range) 18 h post-transfection. The luciferase activity was quantified using Steady-Glo reagent kit (Promega, Madison, Wis.) as per manufacturer's specifications.

RXR-VDR heterodimer = molecular target: T2, RXR-VDR heterodimer (Homo sapiens, UniProt P11473); experiment: RXR-VDR heterodimerization assay (SaOS-2 cells); type: cell-based; settings: Gal4-RXR-DEF/VP16-VDR-LBD luciferase reporter, several values in a cell separated by /
T2 construct: Add the Gal4-RXR-DEF and VP16-VDR-LBD; expressed in transfected cells; host or cells: SaOS-2 cells
T2 sequence (P11473 127-423 limits assumed): T1 sequence (P11473 127-423 limits assumed)
T2 sequence (P19793 201-462 partner limits assumed): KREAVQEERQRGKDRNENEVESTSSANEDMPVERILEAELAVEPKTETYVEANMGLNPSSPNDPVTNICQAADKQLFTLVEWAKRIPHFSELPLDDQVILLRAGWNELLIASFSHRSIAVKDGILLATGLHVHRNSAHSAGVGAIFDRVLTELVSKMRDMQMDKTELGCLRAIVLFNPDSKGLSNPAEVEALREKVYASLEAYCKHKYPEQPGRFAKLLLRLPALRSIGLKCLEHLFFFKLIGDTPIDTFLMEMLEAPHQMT
Method: 1. The RXR-VDR Heterodimer Assay:
This assay provides the VDR activity of a test compound.
(1) Materials and Method for RXR-VDR Heterodimerization Assay:
Luciferase Assay Reagent: • Use Steady-Glo Luciferase Reagent from Promega (Cat #E2550) Consists of: a. E2533 Assay Substrate, lyopholized product and b. E2543 Assay Buffer. • Thaw at room temperature • Store Cell Harvesting Aspirate media from culture flask, rinse cells with HBSS and aspirate. Add trypsin and incubate. When cells appear detached, resuspend cells in growth media. Transfer into a new flask with fresh growth media for passaging the cells. Plate well plates and two extra plates A. Cell Count Mix the cell suspension using pipette Use Hematocytometer to count the cells Load cell suspension onto the hemocytometer chamber Count cells. […] In sterile flask add cell suspension to plating media. Mix. Add cells/well. Place the cells in the incubator. Cells should be about 75% confluent prior to transfection. DAY 2: Transfection Step 1: DNA and Media Add plain DMEM media to tubes for mixing the DNA Add the Reporter gene pFR-LUC Add the Gal4-RXR-DEF and VP16-VDR-LBD Step 2: FuGENE and Media Prepare plain DMEM media in a ubes for mixing FuGENE Add FuGENE 6 Transfection Reagent Incubate Step 3: FuGENE, DNA and Media Complex Add FuGENE Media complex from step 2 to DNA Media complex from step 1 Incubate Step 4: FuGENE, DNA and Media Complex to-well plate Add FuGENE-DNA-Media complex from step 3 to each plate Incubate. […] Day 4: Luciferase Assay Read the plates after drug treatment Remove part of media from all the wells and leave remainder Add Steady-Glo Luciferase Reagent mixture/wells Incubate Count each well using a Luminescence counter, Top Count NXT by Packard
Set a delay between plates to reduce the background.

[1] = Rattus norvegicus, comparison compounds
[2] = comparison compounds, human PBMCs
[3] = Rattus norvegicus, 48 h, 48 hr treatment, luciferase, several values separated by /
[4] = 72 h, BrdU incorporation, several values separated by /
[5] = TPA/PHA stimulated human PBMCs, IL-10 in supernatant by immunoassay, several values separated by /
[6] = serum ionized calcium 6 hours after last dosing
[7] = 48 hr treatment, luciferase, several values separated by /

| SMILES | EC50 (rat osteocalcin promoter; [1]) | IC50 (KERtr cells; comparison compounds) | IC50 (IL-10; [2]) | Mouse Hypercal (female DBF mice; comparison compounds) | EC50 (VDR) | EC50 (rat osteocalcin promoter; [3]) | IC50 (KERtr cells; [4]) | IC50 (IL-10; [5]) | Mouse Hypercal (female DBF mice; [6]) | EC50 (rat osteocalcin promoter; [7]) | EC50 (RXR-VDR heterodimer) |
| --- | --- | --- | --- | --- | --- | --- | --- | --- | --- | --- | --- |
| CCC(CC)(c1ccc(OCC(O)CO)c(C)c1)c1ccc(OCC(O)C(C)(C)C)c(C)c1 (centres unmarked) [BB, 3-(4-{1-Ethyl-1-[4-(2-hydroxy-3,3-dimethyl-butoxy)-3-methyl-phenyl]-propyl}-2-methyl-phenoxy)-propane-1,2-diol, reference compound] | 8.24 nM | 10 nM | 28 nM | 20 µg/kg/day |  |  |  |  |  |  |  |
| CCC(CC)(c1ccc(OCC(=O)C(C)(C)C)c(C)c1)c1cc2cc(C(=O)NCC(=O)O)ccc2o1 [Ex 7, [(2-{1-[4-(3,3-Dimethyl-2-oxo-butoxy)-3-methyl-phenyl]-1-ethylpropyl}-benzofuran-5-carbonyl)-amino]-acetic acid] |  |  |  |  | 412 nM | 0.4 nM | 5 nM | 24 nM | >300 µg/kg/day |  |  |
| CCC(CC)(c1ccc(OCC(=O)C(C)(C)C)c(C(C)C)c1)c1cc2cc(C(=O)O)ccc2o1 [Ex 17] |  |  |  |  | 589 nM |  | 13 nM | 95 nM |  |  |  |
| CCC(CC)(c1ccc(OCC(O)C(C)(C)C)c(C)c1)c1cc2ccc(C(=O)O)cc2o1 (centres unmarked) [Ex 19, 2-{1-Ethyl-1-[4-(2-hydroxy-3,3-dimethyl-butoxy)-3-methyl-phenyl]-propyl}-benzofuran-6-carboxylic acid] |  |  |  |  | 620 nM | 1.4 nM | 8 nM | 34 nM |  | 0.9 nM |  |
| CCC(CC)(c1ccc(OCC(=O)C(C)(C)C)c(C)c1)c1cc(C)c2oc(C(=O)O)cc2c1 [Ex 21, 5-{1-[4-(3,3-dimethyl-2-oxo-butoxy)-3-methyl-phenyl]-1-ethyl-propyl}-7-methyl-benzofuran-2-carboxylic acid] |  |  |  |  | 462 nM | 2 nM | 18 nM | 80 nM | >1000 µg/kg/day | 1 nM | 50 nM and 5 nM |
| CCC(CC)(c1ccc(OCC(=O)C(C)(C)C)c(C)c1)c1ccc2oc(C(=O)O)cc2c1 [Ex 30, 5-{1-[4-(3,3-dimethyl-2-oxo-butoxy)-3-methyl-phenyl]-1-ethyl-propyl}-benzofuran-2-carboxylic acid] |  |  |  |  | 364 nM | 0.3 nM | 9 nM | 25 nM | >1000 µg/kg/day |  |  |
| CCC(CC)(c1ccc(OCC(O)C(C)(C)C)c(C)c1)c1ccc2oc(C(=O)O)cc2c1 (centres unmarked) [Ex 31, 5-{1-ethyl-1-[4-(2-hydroxy-3,3-dimethyl-butoxy)-3-methyl-phenyl]-propyl}-benzofuran-2-carboxylic acid] |  |  |  |  | 279 nM | 0.5 nM | 1 nM | 5.4 nM |  |  | 12 nM |
| CCC(CC)(c1ccc(OCC(=O)C(C)(C)C)c(C)c1)c1ccc2oc(C(=O)NCC(=O)O)c(C)c2c1 [Ex 38, [(5-{1-[4-(3,3-dimethyl-2-oxo-butoxy)-3-methyl-phenyl]-1-ethyl-propyl}-3-methyl-benzofuran-2-carbonyl)-amino]-acetic acid] |  |  |  |  | 314 nM | 0.5 nM | 22 nM |  | >30 µg/kg/day |  |  |
| CCC(CC)(c1ccc(OCC(=O)C(C)(C)C)c(C)c1)c1cc2cc(C(=O)O)ccc2o1 [Ex. 2] |  |  |  |  | 677 nM | 3 nM | 12 nM |  | >1000 µg/kg/day |  | 75 nM |
| CCC(CC)(c1ccc(OCC(=O)C(C)(C)C)c(C)c1)c1cc2cc(C(=O)Nc3nn[nH]n3)ccc2o1 [Ex. 11, 2-{1-[4-(3,3-dimethyl-2-oxo-butoxy)-3-methyl-phenyl]-1-ethyl-propyl}-benzofuran-5-carboxylic acid (2H-tetrazol-5-yl)-amide] |  |  |  |  | 819 nM |  | 9 nM | > 2000 nM | >1000 µg/kg/day |  | 730 nM |
| CCc1cc(C(CC)(CC)c2cc3cc(C(=O)O)ccc3o2)ccc1OCC(=O)C(C)(C)C [Ex. 12] |  |  |  |  | 515 nM | 0.7 nM | 16 nM | 49 nM | >1000 µg/kg/day |  |  |
| C=C1/C(=C\C=C2/CCC[C@]3(C)[C@@H]([C@H](C)/C=C/[C@@H](O)C4CC4)CC[C@@H]23)C[C@@H](O)C[C@@H]1O [FF, calcipotriol, reference compound] | 0.28 nM | 103 nM | 0.5 nM |  |  |  |  |  |  |  |  |
